The test system of the experiment is NCI-H226. The experiment is described as follows: 72H TEAD Proliferation Assay (Cell Titer Glo 2.0). The format is cell-based. As to conditions: Homo sapiens, NCI-H226, 72 h, CTG 2.0, cell line not given (NCI-H226 responsive, NCI-H28 non-responsive). The essentials:
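Growth read-out is ATP luminescence (CellTiter-Glo 2.0) after 72 h compound exposure, corrected for no-CTG background and day-0 values, with GI50 from nonlinear regression. Sensitive line NCI-H226 (NF2-deficient); non-responsive NCI-H28 (NF2 wild type) distinguishes TEAD-driven from nonspecific growth inhibition.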
Background: In ATP-based viability assays light output follows the ATP content of the culture.

The GI50 is the concentration at which growth is held to half of that of the control. A higher GI50 goes with lower sensitivity of the cells.

A value given as a limit tells only on which side of the number the result lay.

The compound `COc1cc2c(-c3ccc(C(C)(C)C)cc3)nc3cc(C(=O)O)ccc3n2c1` [I-180, 4-(4-(tert-butyl)phenyl)-2-methoxypyrrolo[1,2-a]quinoxaline-7-carboxylic acid] registered a GI50 not above 1 µM. In turn, `COc1cc(-c2ccc(C(F)(F)F)cc2)nc2cc(C(=O)O)ccc12` [I-181, 4-methoxy-2-(4-(trifluoromethyl)phenyl)quinoline-7-carboxylic acid] returned a GI50 not above 1 µM. `FC(F)(F)c1ccc(-c2nc3cc(-c4nnn[nH]4)ccc3n3cccc23)cc1` [I-184, 7-(1H-tetrazol-5-yl)-4-(4-(trifluoromethyl)phenyl)pyrrolo[1,2-a]quinoxaline] had a GI50 of 5 to 10 µM. The same measure for `CC(C)(C)c1ccc(-c2nc3cc(C(=O)NCCO)ccc3n3cccc23)cc1` [I-185, 4-(4-(tert-butyl)phenyl)-N-(2-hydroxyethyl)pyrrolo[1,2-a]quinoxaline-7-carboxamide]: 1 to 5 µM; for `CC(CO)NC(=O)c1ccc2c(c1)nc(-c1ccc(C(C)(C)C)cc1)c1cccn12` (stereo not drawn) [I-186, 4-(4-(tert-butyl)phenyl)-N-(1-hydroxypropan-2-yl)pyrrolo[1,2-a]quinoxaline-7-carboxamide]: 1 to 5 µM; for `CN(C)CCNC(=O)c1ccc2c(c1)nc(-c1ccc(C(C)(C)C)cc1)c1cccn12` [I-188, 4-(4-(tert-butyl)phenyl)-N-(2-(dimethylamino)ethyl)pyrrolo[1,2-a]quinoxaline-7-carboxamide]: 1 to 5 µM. As for `CC(C)(C)c1ccc(-c2nc3cc(-c4nnc(N)o4)ccc3n3cccc23)cc1` [I-189, 5-(4-(4-(tert-butyl)phenyl)pyrrolo[1,2-a]quinoxalin-7-yl)-1,3,4-oxadiazol-2-amine], the figure is 5 to 10 µM. For the compound `C[C@@H](CO)NC(=O)c1ccc2c(c1)nc(-c1ccc(C(C)(C)C)cc1)c1cccn12` [I-190, (S)-4-(4-(tert-butyl)phenyl)-N-(1-hydroxypropan-2-yl)pyrrolo[1,2-a]quinoxaline-7-carboxamide], the GI50 lay within 1 to 5 µM. The same measure for `C[C@H](CO)NC(=O)c1ccc2c(c1)nc(-c1ccc(C(C)(C)C)cc1)c1cccn12` [I-191, (R)-4-(4-(tert-butyl)phenyl)-N-(1-hydroxypropan-2-yl)pyrrolo[1,2-a]quinoxaline-7-carboxamide]: not above 1 µM. For the compound `O=C(O)c1ccc2c(c1)nc(-c1ccc(OC(F)(F)F)cc1)c1cccn12` [I-192, 4-(4-(trifluoromethoxy)phenyl)pyrrolo[1,2-a]quinoxaline-7-carboxylic acid], the GI50 was not above 1 µM.

`O=C(O)c1ccc2c(c1)nc(-c1ccc(OC(F)F)cc1)c1cccn12` [I-193, 4-(4-(difluoromethoxy)phenyl)pyrrolo[1,2-a]quinoxaline-7-carboxylic acid] yielded a GI50 of 1 to 5 µM. Consider `O=C(O)c1ccc2c(c1)nc(-c1ccc(SC(F)(F)F)cc1)c1cccn12` [I-194, 4-(4-((trifluoromethyl)thio)phenyl)pyrrolo[1,2-a]quinoxaline-7-carboxylic acid], for which the GI50 is not above 1 µM. The compound `CC(c1ccc(-c2nc3cc(C(=O)O)ccc3n3cccc23)cc1)C(F)(F)F` (stereo not drawn) [I-195, 4-(4-(1,1,1-trifluoropropan-2-yl)phenyl)pyrrolo[1,2-a]quinoxaline-7-carboxylic acid] returned a GI50 of 1 to 5 µM. The same measure for `O=C(O)c1ccc2c(c1)nc(-c1ccc(C3(C(F)(F)F)CC3)cc1)c1cccn12` [I-196, 4-(4-(1-(trifluoromethyl)cyclopropyl)phenyl)pyrrolo[1,2-a]quinoxaline-7-carboxylic acid]: 1 to 5 µM; for `O=C(O)c1ccc2c(c1)nc(-c1cnc(C(F)(F)F)cn1)c1cccn12` [I-198, 4-(5-(trifluoromethyl)pyrazin-2-yl)pyrrolo[1,2-a]quinoxaline-7-carboxylic acid]: 1 to 5 µM; for `O=C(O)c1ccc2c(c1)nc(-c1ccc(C(F)(F)F)cc1C(F)(F)F)c1cccn12` [I-199, 4-(2,4-bis(trifluoromethyl)phenyl)pyrrolo[1,2-a]quinoxaline-7-carboxylic acid]: 1 to 5 µM. On to `O=C(O)c1ccc2c(c1)nc(-c1c(Cl)cc(C(F)(F)F)cc1Cl)c1cccn12` [I-201, 4-(2,6-Dichloro-4-(trifluoromethyl)phenyl)pyrrolo[1,2-a]quinoxaline-7-carboxylic acid], for which the GI50 fell in the range of 5 to 10 µM.

In turn, `C=CC(=O)Nc1ccc2c(c1)nc(-c1ccc(C(F)(F)F)cn1)c1cccn12` [I-202, N-(4-(5-(trifluoromethyl)pyridin-2-yl)pyrrolo[1,2-a]quinoxalin-7-yl)acrylamide] registered a GI50 not above 1 µM. Turning to `CC(C)(C)c1ccc(-c2nc3cc(NC(=O)CO)ccc3n3cccc23)cc1` [I-203, N-(4-(4-(tert-butyl)phenyl)pyrrolo[1,2-a]quinoxalin-7-yl)-2-hydroxyacetamide], the GI50 is 1 to 5 µM. Compound `CC(O)C(=O)Nc1ccc2c(c1)nc(-c1ccc(C(C)(C)C)cc1)c1cccn12` (stereo not drawn) [I-204, N-(4-(4-(tert-Butyl)phenyl)pyrrolo[1,2-a]quinoxalin-7-yl)-2-hydroxypropanamide] showed a GI50 of 1 to 5 µM. In the case of `CN(C)CC(=O)Nc1ccc2c(c1)nc(-c1ccc(C(C)(C)C)cc1)c1cccn12` [I-205, N-(4-(4-(tert-butyl)phenyl)pyrrolo[1,2-a]quinoxalin-7-yl)-2-(dimethylamino)acetamide], the GI50 was 1 to 5 µM.

`CC(C)(C)c1ccc(-c2nc3cc(NC(=O)CN)ccc3n3cccc23)cc1` [I-206, 2-Amino-N-(4-(4-(tert-butyl)phenyl)pyrrolo[1,2-a]quinoxalin-7-yl)acetamide] showed a GI50 of 1 to 5 µM.

Compound `CC(C)(C)c1ccc(-c2nc3cc(NC(=O)c4ccccn4)ccc3n3cccc23)cc1` [I-207, N-(4-(4-(tert-butyl)phenyl)pyrrolo[1,2-a]quinoxalin-7-yl)picolinamide] showed a GI50 of 5 to 10 µM.

Compound `O=C(/C=C/CF)NCc1cn2ccnc2c(-c2ccc(C(F)(F)F)cc2)n1` [I-214, (E)-4-fluoro-N-((8-(4-(trifluoromethyl)phenyl)imidazo[1,2-a]pyrazin-6-yl)methyl)but-2-enamide] returned a GI50 not above 1 µM.

For `C=C(F)C(=O)NCc1cc2ccccc2c(-c2ccc(C(C)(C)C)cc2)n1` [I-215, N-((1-(4-(tert-butyl)phenyl)isoquinolin-3-yl)methyl)-2-fluoroacrylamide], the GI50 was not above 1 µM. The compound `COC/C=C/C(=O)NCc1cn2ccnc2c(-c2ccc(C(F)(F)F)cc2)n1` [I-219, (E)-4-methoxy-N-((8-(4-(trifluoromethyl)phenyl)imidazo[1,2-a]pyrazin-6-yl)methyl)but-2-enamide] yielded a GI50 of 1 to 5 µM. Turning to `C=CC(=O)NC1CCN(c2cn3ccnc3c(-c3ccc(C(F)(F)F)cc3)n2)C1` (stereo not drawn) [I-227, N-(1-(8-(4-(trifluoromethyl)phenyl)imidazo[1,2-a]pyrazin-6-yl)pyrrolidin-3-yl)acrylamide], the GI50 is not above 1 µM. For the compound `O=C(O)C1CCN(c2cn3ccnc3c(-c3ccc(C(F)(F)F)cc3)n2)C1` (stereo not drawn) [I-234, 1-(8-(4-(Trifluoromethyl)phenyl)imidazo[1,2-a]pyrazin-6-yl)pyrrolidine-3-carboxylic acid], the GI50 was in the range of 5 to 10 µM. As for `C=CC(=O)NCc1cn2c(F)cnc2c(-c2ccc(C(F)(F)F)cc2)n1` [I-235, N-((3-fluoro-8-(4-(trifluoromethyl)phenyl)imidazo[1,2-a]pyrazin-6-yl)methyl)acrylamide], the figure is not above 1 µM; as for `C=CC(=O)NCc1cn2ncnc2c(-c2ccc(C(F)(F)F)cc2)n1` [I-236, N-((8-(4-(Trifluoromethyl)phenyl)-[1,2,4]triazolo[1,5-a]pyrazin-6-yl)methyl)acrylamide], not above 1 µM; as for `N#CNCc1cn2ccnc2c(-c2ccc(C(F)(F)F)cc2)n1` [I-238, N-((8-(4-(Trifluoromethyl)phenyl)imidazo[1,2-a]pyrazin-6-yl)methyl)cyanamide], 1 to 5 µM. As to `CN(C#N)Cc1cn2ccnc2c(-c2ccc(C(F)(F)F)cc2)n1` [I-239, N-methyl-N-((8-(4-(trifluoromethyl)phenyl)imidazo[1,2-a]pyrazin-6-yl)methyl)cyanamide], the GI50 is 1 to 5 µM.

For `C=CC(=O)NCc1cn2cc(C)nc2c(-c2ccc(C(F)(F)F)cc2)n1` [I-241, N-((2-methyl-8-(4-(trifluoromethyl)phenyl)imidazo[1,2-a]pyrazin-6-yl)methyl)acrylamide], the GI50 is not above 1 µM.

In the case of `C=CC(=O)N1CC(c2cn3ccnc3c(-c3ccc(C(F)(F)F)cc3)n2)C1` [I-245, 1-(3-(8-(4-(Trifluoromethyl)phenyl)imidazo[1,2-a]pyrazin-6-yl)azetidin-1-yl)prop-2-en-1-one], the GI50 is not above 1 µM. As for `C=CC(=O)NCc1cn2c(C(F)(F)F)cnc2c(-c2ccc(C(F)(F)F)cc2)n1` [I-246, N-((3-(trifluoromethyl)-8-(4-(trifluoromethyl)phenyl)imidazo[1,2-a]pyrazin-6-yl)methyl)acrylamide], the figure is not above 1 µM; as for `C=CC(=O)NCc1cn2cc(C(F)(F)F)nc2c(-c2ccc(C(F)(F)F)cc2)n1` [I-247, N-((2-(trifluoromethyl)-8-(4-(trifluoromethyl)phenyl)imidazo[1,2-a]pyrazin-6-yl)methyl)acrylamide], not above 1 µM; as for `Cc1cn2cc(CNC(=O)/C=C/CF)nc(-c3ccc(C(F)(F)F)cc3)c2n1` [I-248, (E)-4-fluoro-N-((2-methyl-8-(4-(trifluoromethyl)phenyl)imidazo[1,2-a]pyrazin-6-yl)methyl)but-2-enamide], not above 1 µM. Regarding `O=C(/C=C/CF)NCc1cn2c(F)cnc2c(-c2ccc(C(F)(F)F)cc2)n1` [I-249, (E)-4-Fluoro-N-((3-fluoro-8-(4-(trifluoromethyl)phenyl)imidazo[1,2-a]pyrazin-6-yl)methyl)but-2-enamide], the GI50 was not above 1 µM.

Compound `C=CC(=O)NCC(=C)c1cn2ccnc2c(-c2ccc(C(F)(F)F)cc2)n1` [I-250, N-(2-(8-(4-(trifluoromethyl)phenyl)imidazo[1,2-a]pyrazin-6-yl)allyl)acrylamide] returned a concentration for 50% growth inhibition (GI50) not above 1 µM.

The values are drawn from patent US12655150B2 (Cedilla Therapeutics, Inc., priority 2021, dated 2026).
